Reference: patent publication US11628228B2, “99mTc-labeled isonitrile-containing glucose derivative and preparation method and use thereof” (Beijing Shihong Pharmaceutical Research Center, priority 2017, dated 2023)

Tests used:
[1] = Determination of the lipid-water partition coefficient (n-octanol/PBS); assay type: physicochemical
Protocol: One hundred μL of the labeled substance solution (50 μCi) diluted with normal saline is placed into a 2 mL centrifuge tube, and then 800 μL of n-octanol and 700 μL of PBS are added to the centrifuge tube, which is subsequently covered with a cap. The centrifuge tube is vortexed for 3 minutes (2500 r/minute), allowed to stand until the solution is layered, and centrifuged in a centrifuge for 3 minutes (3000 r/minute). Three samples of the upper organic phase and three samples of the lower aqueous phase are taken, each 100 μL, and detected in a γ-counter for the radioactive counts of the organic and aqueous phases, respectively.

S180-bearing mice = test: Bio-distribution in tumor-bearing mice; assay type: in vivo; details: for Blood uptake / Bone uptake / Heart uptake / Kidney uptake / Liver uptake / Lung uptake / Muscle uptake / Small intestine uptake / Spleen uptake / Stomach uptake / Tumor uptake / Tumor/blood ratio / Tumor/muscle ratio: S180-bearing mice, tail vein
Protocol: The labeled solution (0.1 mL, 74 KBq) is injected into mice through the tail vein, and the injection time is recorded. Then the mice were killed by cervical dislocation at different time phases (30 minutes, 60 minutes, and 120 minutes), five mice for each time phase, and the organs of interest such as heart, liver, lung, kidney, spleen, stomach, muscle, blood and tumor are taken out after dissection, and measured with a γ-counter for the radioactive count of each organ. The uptake value of each organ is obtained by calculation based on the mass of the organ (with % ID/g as the unit).

tumor-bearing mice = test: SPECT imaging in tumor-bearing mice; assay type: in vivo; details: 0.2 mL, 700 μCi tail vein, imaging 1 hour later
Protocol: The prepared [^99mTc-(CN3DG)6]^+ or [^99mTc-(CN5DG)6]^+ (0.2 mL, 700 μCi) is injected into tumor-bearing mice through tail vein, and SPECT imaging is performed 1 hour later.

With `O=C(CCCCC[N+]#[C][99Tc-5]([C]#[N+]CCCCCC(=O)NC1C(O)OC(CO)C(O)C1O)([C]#[N+]CCCCCC(=O)NC1C(O)OC(CO)C(O)C1O)([C]#[N+]CCCCCC(=O)NC1C(O)OC(CO)C(O)C1O)([C]#[N+]CCCCCC(=O)NC1C(O)OC(CO)C(O)C1O)[C]#[N+]CCCCCC(=O)NC1C(O)OC(CO)C(O)C1O)NC1C(O)OC(CO)C(O)C1O` (centres unmarked) [[^99mTc-(CN5DG)6]^+] the “Log P (lipid-water partition coefficient)” value [1] was −3.57±0.35, the Blood uptake (S180-bearing mice; 30 min) was 1.58 ± 0.15 % ID/g and the Bone uptake (S180-bearing mice; 30 min) was 0.72 ± 0.11 % ID/g. The Heart uptake (S180-bearing mice; 30 min) was 0.64 ± 0.12 % ID/g, the Kidney uptake (S180-bearing mice; 30 min) was 4.69 ± 0.76 % ID/g and the Liver uptake (S180-bearing mice; 30 min) was 0.61 ± 0.07 % ID/g. The Lung uptake (S180-bearing mice; 30 min) was 1.58 ± 0.18 % ID/g, the Muscle uptake (S180-bearing mice; 30 min) was 0.46 ± 0.05 % ID/g and the Small intestine uptake (S180-bearing mice; 30 min) was 0.74 ± 0.09 % ID/g. It also gave a Spleen uptake (S180-bearing mice; 30 min) of 0.51 ± 0.08 % ID/g, a Stomach uptake (S180-bearing mice; 30 min) of 0.50 ± 0.09 % ID/g and a Tumor uptake (S180-bearing mice; 30 min) of 1.83 ± 0.18 % ID/g. For the same compound, the Tumor/blood ratio (S180-bearing mice; 30 min) was 1.16, the Tumor/muscle ratio (S180-bearing mice; 30 min) was 3.98 and the Blood uptake (S180-bearing mice; 60 min) was 0.55 ± 0.17 % ID/g. For the same compound, the Bone uptake (S180-bearing mice; 60 min) was 0.41 ± 0.15 % ID/g, the Heart uptake (S180-bearing mice; 60 min) was 0.41 ± 0.02 % ID/g and the Kidney uptake (S180-bearing mice; 60 min) was 2.68 ± 0.32 % ID/g. It also gave a Liver uptake (S180-bearing mice; 60 min) of 0.38 ± 0.08 % ID/g, a Lung uptake (S180-bearing mice; 60 min) of 0.59 ± 0.16 % ID/g and a Muscle uptake (S180-bearing mice; 60 min) of 0.27 ± 0.10 % ID/g. It also gave a Small intestine uptake (S180-bearing mice; 60 min) of 0.43 ± 0.07 % ID/g, a Spleen uptake (S180-bearing mice; 60 min) of 0.28 ± 0.07 % ID/g and a Stomach uptake (S180-bearing mice; 60 min) of 0.37 ± 0.14 % ID/g. The Tumor uptake (S180-bearing mice; 60 min) was 1.07 ± 0.21 % ID/g, the Tumor/blood ratio (S180-bearing mice; 60 min) was 1.94 and the Tumor/muscle ratio (S180-bearing mice; 60 min) was 3.96. For the same compound, the Blood uptake (S180-bearing mice; 120 min) was 0.16 ± 0.02 % ID/g, the Bone uptake (S180-bearing mice; 120 min) was 0.15 ± 0.04 % ID/g and the Heart uptake (S180-bearing mice; 120 min) was 0.22 ± 0.04 % ID/g. The Kidney uptake (S180-bearing mice; 120 min) was 2.07 ± 0.13 % ID/g, the Liver uptake (S180-bearing mice; 120 min) was 0.34 ± 0.08 % ID/g and the Lung uptake (S180-bearing mice; 120 min) was 0.29 ± 0.06 % ID/g. For the same compound, the Muscle uptake (S180-bearing mice; 120 min) was 0.18 ± 0.03 % ID/g, the Small intestine uptake (S180-bearing mice; 120 min) was 0.22 ± 0.08 % ID/g and the Spleen uptake (S180-bearing mice; 120 min) was 0.17 ± 0.02 % ID/g. It also gave a Stomach uptake (S180-bearing mice; 120 min) of 0.35 ± 0.06 % ID/g, a Tumor uptake (S180-bearing mice; 120 min) of 0.75 ± 0.07 % ID/g and a Tumor/blood ratio (S180-bearing mice; 120 min) of 4.69. For the same compound, the Tumor/muscle ratio (S180-bearing mice; 120 min) was 4.16, the Tumor/liver ratio (S180-bearing mice; tumor-bearing mice, 0.5 hour after injection) was 3.00 and the “SPECT imaging: aggregation at the tumor sites” value (tumor-bearing mice) was “evident aggregation at the tumor sites”. The “SPECT imaging: concentration in kidney” value (tumor-bearing mice) was “relatively high concentration in kidney” and the “SPECT imaging: uptake in other organs” value (tumor-bearing mice) was “relatively low”.
